{
  "source": "patent US20260256870A1",
  "about": "“SKIN COMPOSITION” (Eaderm Co., Ltd., priority 2019, published 2026)",
  "key": {"UVB-irradiated back skin": {"tested_on": "UVB-irradiated back skin", "assay": "Barrier function after UVB irradiation (Example 12)", "type": "in vivo, Hairless mice HOS: HR-1", "description": "Hairless mice HOS: HR-1 females (7 weeks old) were acclimatized to the experimental environment and then grouped into the 6 groups below, so that the body weight values were nearly uniform. • No ultraviolet irradiation group (n=2) • Ultraviolet (UVB) irradiation+solvent application group (n=4). • Ultraviolet (UVB) irradiation+200 nM apocynin application group (n=4). • Ultraviolet (UVB) irradiation+200 μM apocynin application group (n=4). • Ultraviolet (UVB) irradiation+2 μM Y-27632 application group (n=4). • Ultraviolet (UVB) irradiation+20 μM Y-27632 application group (n=4) In the above solution application group, aqueous solutions of each preparation were applied to hairless mice on their back once a day for five days, starting from the day before ultraviolet irradiation. UVB irradiation was carried out using a Yayoi ultraviolet irradiation system (Y-UV-Lab-K-D5 lamp type) at an intensity of 150 mJ/cm^2 once a day. The stratum corneum water content and TEWL of the irradiated area were measured for each group of mice on the fourth day after the start of ultraviolet irradiation. The measurements were performed using Corneometer CM825 and Tewameter TN300 (Courage+Khazaka, Integral Corporation, Germany) at specific sites on the back of the mice."}, "[1]": {"tested_on": "full thickness wounds in the skin of rodent tails", "assay": "Full thickness wound healing in tail skin", "type": "in vivo, mice", "settings": "day 0, day 14, day 21 (FIG. 12)", "description": "To test the above hypothesis, the present inventors performed a full-layer wound healing experiment using the tail skin of aged wild-type mice. […] Forced expression of hCOL17A1 by basal layer keratinocytes in mice also promoted wound healing (FIG. 12). […] To confirm the beneficial effects in vivo, these drugs were administered to full thickness wounds in the skin of rodent tails."}, "[2]": {"tested_on": "human epidermal keratinocytes", "assay": "Colony formation assay using human epidermal keratinocytes", "type": "cell-based", "source_text": "To test whether COL17A1-mediated SCD maintains clonal proliferation of epidermal stem cell clones, the present inventors used a colony formation assay, which is an in vitro assay said to be the gold standard for assessing the self-renewal ability of epidermal stem cells, including cells in the tail epidermis."}},
  "note": "“Also recorded” adds a separate entry of the source.",
  "data": [
    {"smiles": "COc1cc(C(C)=O)ccc1O", "note": "[Apocynin]", "values": [
      {"measurement": "TEWL after ultraviolet irradiation", "setting": "UVB-irradiated back skin; 200 µM administration group, UVB, fourth day (FIG. 21)", "result": "significantly lower"},
      {"measurement": "water content of the stratum corneum after ultraviolet irradiation", "setting": "UVB-irradiated back skin; 200 μM applied, UVB 150 mJ/cm^2, fourth day (FIG. 21)", "result": "significantly higher"},
      {"measurement": "wound repair (unrepaired wound area)", "setting": "[1]", "result": "significantly accelerated; also recorded: significantly promote the wound repair process"},
      {"measurement": "Colony area (control ratio)", "setting": "[2]; Table 1", "result": "⊚ (one double circle (⊚) indicates maintenance of 1.0-1.2-fold)"},
      {"measurement": "Colony number (control ratio)", "setting": "[2]; Table 1", "result": "⊚ (one double circle (⊚) indicates maintenance of 1.0-1.2-fold)"},
      {"measurement": "area of colonies per well", "setting": "[2]; compared to the control (FIG. 16)", "result": "significantly increased"},
      {"measurement": "number of colonies", "setting": "[2]; compared to the control, n=3 wells (FIG. 13, FIG. 16)", "result": "significantly increased"},
      {"measurement": "average size of the top five colonies", "setting": "[2]; compared to the control, n=3 wells (FIG. 14)", "result": "significantly increased"},
      {"measurement": "colony size", "setting": "[2]; human epidermal keratinocytes", "result": "significantly increased"},
      {"measurement": "number of colonies with a diameter greater than 2 mm", "setting": "[2]; n=3 wells (FIG. 13 right)", "result": "significantly increased"}
    ]}
  ]
}
